Experimental data taken from patent US20050075393A1, “Carboxylic acid compound cyclopropane ring” (priority 2000, published 2005).

Tested on: hippocampal neurotransmission (PS amplitude, dentate granule cells, perforant path stimulation)
Assay: Population spike (PS) recording in dentate gyrus of anesthetized mice (LTP-like potentiation of synaptic transmission)
Type: in vivo
Settings: mouse
From the text: For population spike (PS) recording, the head of a mouse was fixed with ear bars under urethane anesthesia (an initial dose of 1.2 g/kg, i.p. followed by supplemental injections of 0.2-0.6 g/kg as needed), and a glass recording electrode was placed in the cell body layer of dentate granule cells (coordinates=2.0-2.5 mm posterior to bregma, 1.0-1.5 mm lateral to the midline, 1.5-2.0 mm ventral to the brain surface). Initial responses were obtained using cathodal stimulation (7.0-9.0 V, 0.1 Hz, 0.1 ms in duration) of the perforant path. After both stimulating and recording electrodes were properly positioned and population spike was obtained, the baseline was allowed to stabilize for 30 min prior to baseline recording. Body temperature was maintained at 37° C. Compound A was dissolved in 50% polyethylene glycol, diluted with water, and injected intraperitoneally (i.p.) at concentrations of 0.1 mg/kg, 1 mg/kg and 10 mg/kg, respectively. After the intraperitoneal administration of Compound A, the PS amplitude was measured every 5 minutes, and the proportion in percentage of the obtained value to the PS amplitude at the time of the start of i.p. administration of Compound A (% of basal PS amplitude) was calculated.

CCCCCC1CC1CC1CC1CCCCCCCC(=O)O (stereo not drawn) [Compound A, 8-(2-((2-pentylcyclopropan-1-yl)methyl)cyclopropyl)octanoic acid]
time after injection at which potentiation of PS amplitude is still evident (1 mg/kg i.p.): ≥ 120 min
PS amplitude, percent of basal PS amplitude (1 mg/kg i.p., urethane anesthesia): approximately 200%
potentiation of PS amplitude (10 mg/kg i.p., compared with 1 mg/kg): much lesser potentiation
